Laboratory results from patent publication US7790721B2, “Pyrroloquinoxalinone inhibitors of poly(ADP-ribose)polymerase” (Abbott Laboratories, priority 2006, dated 2010).

Target: T1, PARP-1 (Homo sapiens, UniProt P09874)
T1 construct: purchased Trevigen (Gaithersburg, Md.); host or cells: E. coli
Assay: PARP1 assay (inhibition of PARP, [3H]-NAD+ / biotinylated histone H1, FlashPlate scintillation)
Assay type: biochemical
Conditions: not given

T1 sequence (P09874 whole entry): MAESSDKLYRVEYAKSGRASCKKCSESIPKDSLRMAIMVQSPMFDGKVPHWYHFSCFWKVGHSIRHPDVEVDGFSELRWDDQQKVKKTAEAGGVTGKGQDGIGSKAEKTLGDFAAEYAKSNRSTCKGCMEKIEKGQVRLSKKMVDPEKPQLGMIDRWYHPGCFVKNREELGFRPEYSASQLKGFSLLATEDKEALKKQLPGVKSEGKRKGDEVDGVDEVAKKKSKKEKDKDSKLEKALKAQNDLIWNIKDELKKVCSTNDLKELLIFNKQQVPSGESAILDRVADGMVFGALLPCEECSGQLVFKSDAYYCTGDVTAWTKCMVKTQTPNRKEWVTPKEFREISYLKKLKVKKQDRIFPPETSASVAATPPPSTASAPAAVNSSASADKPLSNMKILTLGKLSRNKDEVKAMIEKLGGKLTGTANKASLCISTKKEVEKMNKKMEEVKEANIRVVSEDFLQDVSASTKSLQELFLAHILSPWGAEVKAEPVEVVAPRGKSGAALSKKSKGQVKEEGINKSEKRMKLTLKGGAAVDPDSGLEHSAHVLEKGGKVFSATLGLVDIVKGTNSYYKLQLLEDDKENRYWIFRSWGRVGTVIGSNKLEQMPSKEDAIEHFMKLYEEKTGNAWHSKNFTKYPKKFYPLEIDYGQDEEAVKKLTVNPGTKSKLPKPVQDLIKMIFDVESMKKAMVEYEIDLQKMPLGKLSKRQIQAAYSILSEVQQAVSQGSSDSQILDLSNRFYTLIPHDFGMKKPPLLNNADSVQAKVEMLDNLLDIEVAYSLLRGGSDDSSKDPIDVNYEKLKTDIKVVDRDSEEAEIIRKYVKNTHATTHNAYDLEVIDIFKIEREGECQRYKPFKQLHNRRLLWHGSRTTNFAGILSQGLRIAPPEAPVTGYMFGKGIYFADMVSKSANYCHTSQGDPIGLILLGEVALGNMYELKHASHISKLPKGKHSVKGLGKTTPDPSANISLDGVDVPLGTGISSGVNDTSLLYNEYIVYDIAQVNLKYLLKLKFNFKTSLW

Ki	Structure (SMILES)
127 nM	O=c1[nH]c2cc(CNCc3ccccc3)ccc2n2cccc12 [Example 11, 7-((benzylamino)methyl)pyrrolo[1,2-a]quinoxalin-4(5H)-one]

Same assay, conditions: recombinant human PARP, 1 nM enzyme, 1.5 μM [3H]-NAD+; inhibition curves at various substrate concentrations; read-out: PARP-1 (Ki)

Structure (SMILES)	Ki
O=C1Nc2cc(CN3CCCCC3)ccc2N2CCCCC12 (stereo not shown) [Example 37, 3-(piperidin-1-ylmethyl)-7,8,9,10-tetrahydro-5H-pyrido[1,2-a]quinoxalin-6(6aH)-one]	98 nM
O=c1[nH]c2ccc(CNC3CCC3)cc2n2cccc12 [Example 16, 8-((cyclobutylamino)methyl)pyrrolo[1,2-a]quinoxalin-4(5H)-one]	51 nM
O=C1CCCN1Cc1ccc2c(c1)[nH]c(=O)c1cccn12 [Example 52, 7-[(2-oxopyrrolidin-1-yl)methyl]pyrrolo[1,2-a]quinoxalin-4(5H)-one]	698 nM
O=c1[nH]c2cc(CN3CCOCC3)ccc2n2ccnc12 [Example 25, 7-(morpholin4-ylmethyl)imidazo[1,2-a]quinoxalin-4(5H)-one]	2850 nM
O=c1[nH]c2cc(CNC3CCCC3)ccc2n2cccc12 [Example 4, 7-((cyclopentylamino)methyl)pyrrolo[1,2-a]quinoxalin-4(5H)-one]	179 nM
CN(C)Cc1ccc2c(c1)[nH]c(=O)c1nccn12 [Example 23, 7-((dimethylamino)methyl)imidazo[1,2-a]quinoxalin-4(5H)-one]	519 nM
CC(C)N(C)Cc1ccc2c(c1)NC(=O)C1CCCCN21 (stereo not shown) [Example 41, 3-{[isopropyl(methyl)amino]methyl}-7,8,9,10-tetrahydro-5H-pyrido[1,2-a]quinoxalin-6(6aH)-one]	284 nM
CC(C)NCc1ccc2c(c1)NC(=O)C1CCCCN21 (stereo not shown) [Example 38, 3-[(isopropylamino)methyl]-7,8,9,10-tetrahydro-5H-pyrido[1,2-a]quinoxalin-6(6aH)-one]	340 nM
O=C1NCc2cc(CN3CCCC3)ccc2-n2cccc21 [Example 27, 8-(pyrrolidin-1-ylmethyl)-5,6-dihydro-4H-pyrrolo[1,2-a][1,4]benzodiazepin-4-one]	1120 nM
CCN(C)Cc1ccc2c(c1)NC(=O)C1CCCCN21 (stereo not shown) [Example 39, 3-{[ethyl(methyl)amino]methyl}-7,8,9,10-tetrahydro-5H-pyrido[1,2-a]quinoxalin-6(6aH)-one]	71 nM
O=c1[nH]c2cc(CNCC3CCCCC3)ccc2n2ccnc12 [Example 24, 7-(((cyclohexylmethyl)amino)methyl)imidazo[1,2-a]quinoxalin-4(5H)-one]	5180 nM
O=c1[nH]c2ccc(CNC3CCCCC3)cc2n2cccc12 [Example 8, 8-((cyclohexylamino)methyl)pyrrolo[1,2-a]quinoxalin-4(5H)-one]	99 nM
O=c1[nH]c2ccc(CN3CCCCC3)cc2n2cccc12 [Example 19, 8-(piperidin-1-ylmethyl)pyrrolo[1,2-a]quinoxalin-4(5H)-one]	47 nM
O=C1NCc2cc(CNCC3CCCCC3)ccc2-n2cccc21 [Example 31, 8-(((cyclohexylmethyl)amino)methyl)-5,6-dihydro-4H-pyrrolo[1,2-a][1,4]benzodiazepin-4-one]	1490 nM
CC(C)N(C)Cc1ccc2c(c1)NC(=O)C1CCCN21 (stereo not shown) [Example 50, 7-{[isopropyl(methyl)amino]methyl}-1,2,3,3a-tetrahydropyrrolo[1,2-a]quinoxalin-4(5H)-one]	1960 nM
O=C1Nc2cc(CN3CCCCC3)ccc2N2CCCC12 (stereo not shown) [Example 45, 7-(piperidin-1-ylmethyl)-1,2,3,3a-tetrahydropyrrolo[1,2-a]quinoxalin-4(5H)-one]	146 nM
O=c1[nH]c2cc(CNC3CCC3)ccc2n2cccc12 [Example 3, 7-((cyclobutylamino)methyl)pyrrolo[1,2-a]quinoxalin-4(5H)-one]	83 nM
O=c1[nH]c2ccc(CNC3CCCC3)cc2n2cccc12 [Example 18, 8-((cyclopentylamino)methyl)pyrrolo[1,2-a]quinoxalin-4(5H)-one]	79 nM
O=c1[nH]c2ccc(CNCCc3ccccc3)cc2n2cccc12 [Example 14, 8-(((2-phenylethyl)amino)methyl)pyrrolo[1,2-a]quinoxalin-4(5H)-one]	98 nM
O=C1Nc2cc(CNC3CCCCC3)ccc2N2CCCCC12 (stereo not shown) [Example 36, 3-[(cyclohexylamino)methyl]-7,8,9,10-tetrahydro-5H-pyrido[1,2-a]quinoxalin-6(6aH)-one]	3490 nM
O=c1[nH]c2cc(CN3CCCCC3)ccc2n2ccnc12 [Example 22, 7-(piperidin-1-ylmethyl)imidazo[1,2-a]quinoxalin-4(5H)-one]	330 nM
O=c1[nH]c2cc(CN3CCCC3)ccc2n2ccnc12 [Example 21, 7-(pyrrolidin-1-ylmethyl)imidazo[1,2-a]quinoxalin-4(5H)-one]	280 nM
CC(=O)N(Cc1ccc2c(c1)[nH]c(=O)c1cccn12)C1CCC1 [Example 55, N-cyclobutyl-N-[(4-oxo-4,5-dihydropyrrolo[1,2-a]quinoxalin-7-yl)methyl]acetamide]	1500 nM
CN(Cc1ccc2c(c1)NC(=O)C1CCCCN21)C1CCCCC1 (stereo not shown) [Example 40, 3-{[cyclohexyl(methyl)amino]methyl}-7,8,9,10-tetrahydro-5H-pyrido[1,2-a]quinoxalin-6(6aH)-one]	1500 nM
CN1CCN(Cc2ccc3c(c2)NC(=O)C2CCCN32)CC1 (stereo not shown) [Example 48, 7-[(4-methylpiperazin-1-yl)methyl]-1,2,3,3a-tetrahydropyrrolo[1,2-a]quinoxalin-4(5H)-one]	> 9500 nM
CN1CCN(Cc2ccc3c(c2)CNC(=O)c2cccn2-3)CC1 [Example 29, 8-((4-methylpiperazin-1-yl)methyl)-5,6-dihydro-4H-pyrrolo[1,2-a][1,4]benzodiazepin-4-one]	1500 nM
O=c1[nH]c2ccc(CNCc3ccccc3)cc2n2cccc12 [Example 20, 8-((benzylamino)methyl)pyrrolo[1,2-a]quinoxalin-4(5H)-one]	131 nM
O=C1NCc2cc(CNCc3ccccc3)ccc2-n2cccc21 [Example 32, 8-((benzylamino)methyl)-5,6-dihydro-4H-pyrrolo[1,2-a][1,4]benzodiazepin-4-one]	809 nM
O=C1NCc2cc(CNC3CCCCC3)ccc2-n2cccc21 [Example 58, 8-[(cyclohexylamino)methyl]-5,6-dihydro-4H-pyrrolo[1,2-a][1,4]benzodiazepin4-one]	1440 nM

Continued, values first:

Ki	Structure (SMILES)
615 nM	CN(C)C(=O)c1ccc2c(c1)[nH]c(=O)c1cccn12 [Example 79, N,N-dimethyl-4-oxo-4,5-dihydropyrrolo[1,2-a]quinoxaline-7-carboxamide]
776 nM	CN(C)C1CCC(NC(=O)c2ccc3c(c2)[nH]c(=O)c2cccn23)CC1 (stereo not shown) [Example 74, N-[4-(dimethylamino)cyclohexyl]-4-oxo4,5-dihydropyrrolo[1,2-a]quinoxaline-7-carboxamide]
318 nM	O=C(O)CNCc1ccc2c(c1)[nH]c(=O)c1cccn12 [Example 60, N-[(4-oxo-4,5-dihydropyrrolo[1,2-a]quinoxalin-7-yl)methyl]glycine]
77 nM	NC1CCN(C(=O)c2ccc3c(c2)[nH]c(=O)c2cccn23)CC1 [Example 87, 7-[(4-aminopiperidin-1-yl)carbonyl]pyrrolo[1,2-a]quinoxalin-4(5H)-one]
534 nM	COC(=O)CNCc1ccc2c(c1)[nH]c(=O)c1cccn12 [Example 59, Methyl N-[(4-oxo4,5-dihydropyrrolo[1,2-a]quinoxalin-7-yl)methyl]glycinate]
369 nM	O=C(NCC(=O)N1CCOCC1)c1ccc2c(c1)[nH]c(=O)c1cccn12 [Example 64, N-(2-morpholino-2-oxoethyl)-4-oxo-4,5-dihydropyrrolo[1,2-a]quinoxaline-7-carboxamide]
182 nM	O=c1[nH]c2cc(CNCCN3CCCCC3)ccc2n2cccc12 [Example 71, 7-{[(2-piperidin-1-ylethyl)amino]methyl}pyrrolo[1,2-a]quinoxalin-4(5H)-one]
94 nM	O=C(NCCCCc1ccccc1)c1ccc2c(c1)[nH]c(=O)c1cccn12 [Example 81, 4-oxo-N-(4-phenylbutyl)-4,5-dihydropyrrolo[1,2-a]quinoxaline-7-carboxamide]
113 nM	CCN1CCCC(NC(=O)c2ccc3c(c2)[nH]c(=O)c2cccn23)C1 (stereo not shown) [Example 80, N-(1-ethylpiperidin-3-yl)4-oxo-4,5-dihydropyrrolo[1,2-a]quinoxaline-7carboxamide]
58 nM	O=C(Nc1ccc(N2CCN(Cc3ccccc3)CC2)cc1)c1ccc2c(c1)[nH]c(=O)c1cccn12 [Example 83, N-[4-(4-benzylpiperazin-1-yl)phenyl]-4-oxo4,5-dihydropyrrolo[1,2-a]quinoxaline-7-carboxamide]
149 nM	O=C(CNCc1ccc2c(c1)[nH]c(=O)c1cccn12)N1CCCC1 [Example 76, 7-((2-oxo-2-(pyrrolidin-1-yl)ethylamino)methyl)pyrrolo[1,2-a]quinoxalin-4(5H)-one]
86 nM	O=C(NCCN1CCSCC1)c1ccc2c(c1)[nH]c(=O)c1cccn12 [Example 78, 4-oxo-N-(2-thiomorpholin-4-ylethyl)-4,5-dihydropyrrolo[1,2-a]quinoxaline-7-carboxamide]
8690 nM	O=C(c1ccc2c(c1)[nH]c(=O)c1cccn12)N1CCCNCC1 [Example 88, 7-(1,4-diazepan-1-ylcarbonyl)pyrrolo[1,2-a]quinoxalin-4(5H)-one]
874 nM	O=C(NCC(=O)N1CCCC1)c1ccc2c(c1)[nH]c(=O)c1cccn12 [Example 73, 4-oxo-N-(2-oxo-2-(pyrrolidin-1-yl)ethyl)-4,5-dihydropyrrolo[1,2-a]quinoxaline-7-carboxamide]
1630 nM	CN(C)CCNC(=O)c1ccc2c(c1)[nH]c(=O)c1cccn12 [Example 68, N-[2-(dimethylamino)ethyl]-4-oxo-4,5-dihydropyrrolo[1,2-a]quinoxaline-7-carboxamide]
129 nM	O=c1[nH]c2cc(CNCCCN3CCCCC3)ccc2n2cccc12 [Example 69, 7-{[(3-piperidin-1-ylpropyl)amino]methyl}pyrrolo[1,2-a]quinoxalin-4(5H)-one]
